Reference: patent US8192962B2, “Processes for detecting toxic substances” (Daikin Industries, Ltd., priority 2001, dated 2012)

Test system: Mitochondria-located protein genes
Assay: DNA chip mRNA expression in yeast, mitochondria-located protein genes (Table 2)
Format: cell-based, Saccharomyces cerevisiae S288C
Conditions: cells incubated two hours with the chemical substance
Method: Yeast (Saccharomyces cerevisiae S288C (α SUC2mal mel gap2 CUP1)) were incubated at 25° C. on YPD medium (yeast extract 1%, polypepton 2%, glucose 2%). One of toxic chemical substances was added to the cells at logarithmic growth phase, and the cells were further incubated for two hours. Cells were cultured without any chemical substance in the same condition, and were used as control. Concentrations of the chemical substances were defined to inhibit the growth of the yeast but not lead to death.
After completion of the incubation, the culture was centrifuged to collect the cells. To the cells, sodium acetate buffer (50 mM sodium acetate, 10 mM EDTA, 1% SDS) was added, and the mixture was shaken at 65° C. for five minutes, followed by returning to room temperature, and obtaining the supernatant, of which the procedures were repeated two times. To the supernatant, ½ amount of a solution of phenol/chloroform was added, and the mixture was centrifuged to give a supernatant, which was added with an equal amount of chloroform, and the mixture was centrifuged to give a supernatant. To the supernatant, an equal amount of isopropanol containing 0.3 M sodium acetate was added, and the mixture was allowed to stand at room temperature for 30 minutes, after which the mixture was centrifuged to give a sediment of the whole RNAs. Seventy % ethanol was added to the sediment, and the mixture was again centrifuged to give a sediment, which was then dried and dissolved in water. mRNA was isolated from the whole RNAs as followings. In view of the fact that a poly A chain is attached to the 3′ terminus of mRNA, a polynucleotide having a poly T structure which was immobilized on the surface of latex beads was used to trap the mRNA, and then the mRNA was washed and eluted with spine column (Oligotex-dT30<Super>mRNA Purification Kit, Takara). Reverse transcription of the mRNA was conducted with a reverse transcriptase (Super Script II Reverse Transcriptase; catalogue No. 18064-014, GibcoBRL) using fluorescence-labeled nucleotides to give cDNAs that were introduced with Cy3-dUTP or Cy5-dUTP during the reverse transcription.
The labeled cDNAs were dissolved in TE buffer (10mM Tris-HCl/1 mM EDTA, pH8.0), and the solution was dropped on the DNA chip containing the whole genes of yeast (DNA Chip Research Inc. Japan) so that the cDNAs were hybridized on the DNA chip at 65° C. for over 12 hours. The fluoresces intensity of the DNA chip was read with a scanner, and the ratio relative to the fluorescence intensity resulting from the absence of chemical substance was estimated as the following, which is shown in Tables 1 to 9: […]

With `C[S+](C)[O-]` [(15), dimethylsulfoxide] the “The level of expressed mRNA in the presence of chemical substance/The level of expressed mRNA in the absence of chemical substance” value (yeast gene YBR029C) was 3.5, the “The level of expressed mRNA in the presence of chemical substance/The level of expressed mRNA in the absence of chemical substance” value (yeast gene YBR291C) was 0.5 and the “The level of expressed mRNA in the presence of chemical substance/The level of expressed mRNA in the absence of chemical substance” value (yeast gene YDR529C) was 0.5. The “The level of expressed mRNA in the presence of chemical substance/The level of expressed mRNA in the absence of chemical substance” value (yeast gene YEL039C) was 0.4, the “The level of expressed mRNA in the presence of chemical substance/The level of expressed mRNA in the absence of chemical substance” value (yeast gene YGR029W) was 0.4 and the “The level of expressed mRNA in the presence of chemical substance/The level of expressed mRNA in the absence of chemical substance” value (yeast gene YGR062C) was 0.5. For the same molecule, the “The level of expressed mRNA in the presence of chemical substance/The level of expressed mRNA in the absence of chemical substance” value (yeast gene YGR076C) was 0.5, the “The level of expressed mRNA in the presence of chemical substance/The level of expressed mRNA in the absence of chemical substance” value (yeast gene YIL022W) was 2.9 and the “The level of expressed mRNA in the presence of chemical substance/The level of expressed mRNA in the absence of chemical substance” value (yeast gene YIL094C) was 0.5. The “The level of expressed mRNA in the presence of chemical substance/The level of expressed mRNA in the absence of chemical substance” value (yeast gene YJL166W) was 0.5, the “The level of expressed mRNA in the presence of chemical substance/The level of expressed mRNA in the absence of chemical substance” value (yeast gene YKL085W) was 0.5 and the “The level of expressed mRNA in the presence of chemical substance/The level of expressed mRNA in the absence of chemical substance” value (yeast gene YKL170W) was 0.8. For the same molecule, the “The level of expressed mRNA in the presence of chemical substance/The level of expressed mRNA in the absence of chemical substance” value (yeast gene YKL194C) was 0.8, the “The level of expressed mRNA in the presence of chemical substance/The level of expressed mRNA in the absence of chemical substance” value (yeast gene YKR052C) was 0.5 and the “The level of expressed mRNA in the presence of chemical substance/The level of expressed mRNA in the absence of chemical substance” value (yeast gene YLL041C) was 0.4. The “The level of expressed mRNA in the presence of chemical substance/The level of expressed mRNA in the absence of chemical substance” value (yeast gene YLR295C) was 0.5, the “The level of expressed mRNA in the presence of chemical substance/The level of expressed mRNA in the absence of chemical substance” value (yeast gene YLR395C) was 0.4 and the “The level of expressed mRNA in the presence of chemical substance/The level of expressed mRNA in the absence of chemical substance” value (yeast gene YML110C) was 1.3. The “The level of expressed mRNA in the presence of chemical substance/The level of expressed mRNA in the absence of chemical substance” value (yeast gene YML120C) was 0.5, the “The level of expressed mRNA in the presence of chemical substance/The level of expressed mRNA in the absence of chemical substance” value (yeast gene YOR037W) was 0.9 and the “The level of expressed mRNA in the presence of chemical substance/The level of expressed mRNA in the absence of chemical substance” value (yeast gene YOR374W) was 2.5.
